This is an account of results in patent US7566733B2, “Benzimidazole derivatives useful as selective androgen receptor modulators (sarms)” (priority 2004, dated 2009).

Molecules are shown by their SMILES.

For this assay, the system named is castrated male Sprague Dawley rats. Put plainly: Ventral Prostate and Seminal Vesicle Weight In Vivo Assay. Note: key: active: the non weight adjusted prostate weight was ≦40 mg or the % Inhibition prostate weight, body weight adjusted was ≧40%@2 mg/day dosage; inactive: did not meet the specified criteria defined above. Particulars: inhibition of testosterone-enhanced prostate weight; immature castrated rats, once daily for five days, usually orally 40 mg/kg, with testosterone propionate 2 mg/kg s.c. How it is done: Ventral Prostate and Seminal Vesicle Weight In Vivo Assay
Immature (approximately 50 g) castrated male Sprague Dawley rats (Charles River) were treated once daily for five days with test compound (usually given orally at 40 mg/kg in a volume of 0.3 mL, in 30% cyclodextrin or 0.5% methylcellulose vehicle) and with testosterone propionate (given subcutaneously by injection at the nape of the neck at 2 mg/kg, in a volume of 0.1 mL in sesame oil). On the sixth day, the rats were euthanized by asphyxiation in carbon dioxide. Ventral prosatates and seminal vesicles were removed and their wet weights determined. Test compound activity was determined as the percent inhibition of testosterone-enhanced tissue weights, with a vehicle-treated control group set to zero percent and a testosterone alone-treated control group set to 100%.
Representative compounds of the present invention were tested according to the procedure described, with results as listed in Table 7 below. A test compound is listed as “active” if the non weight adjusted prostate weight was ≦40 mg or the % Inhibition prostate weight, body weight adjusted was ≧40%@2 mg/day dosage. ID50's, if determined, of ≦15 mg/day also indicated an “active” compound.
Take `O=C(Cn1c(CC(F)(F)F)nc2cc(Cl)c(Cl)cc21)c1cccnc1` [Compound 87, 2-[5,6-Dichloro-2-(2,2,2-trifluoro-ethyl)-benzoimidazol-1-yl]-1-pyridin-3-yl-ethanone]: the result was inactive.

Turning to `O=C(Cn1c(CC(F)(F)F)nc2cc(Cl)c(Cl)cc21)c1ccc(-c2ccccn2)s1` [Compound 88, 2-[5,6-Dichloro-2-(2,2,2-trifluoro-ethyl)-benzoimidazol-1-yl]-1-(5-pyridin-2-yl-thiophen-2-yl)-ethanone], the outcome was inactive.

Regarding `Fc1ccc(Cn2c(CC(F)(F)F)nc3cc(Cl)c(Cl)cc32)cc1` [Compound 89, 5,6-Dichloro-1-(4-fluoro-benzyl)-2-(2,2,2-trifluoro-ethyl)-1H-benzoimidazole], the outcome was active.

For `COc1ccccc1C(=O)Cn1c(CC(F)(F)F)nc2cc(Cl)c(Cl)cc21` [Compound 90, 2-[5,6-Dichloro-2-(2,2,2-trifluoro-ethyl)-benzoimidazol-1-yl]-1-(2-methoxy-phenyl)-ethanone], the outcome was inactive.

In the case of `O=C(Cn1c(CC(F)(F)F)nc2cc(Cl)c(Cl)cc21)c1cccs1` [Compound 91, 2-[5,6-Dichloro-2-(2,2,2-trifluoro-ethyl)-benzoimidazol-1-yl]-1-thiophen-2-yl-ethanone], the outcome was active.

With `O=C(Cn1c(CC(F)(F)F)nc2cc(Cl)c(Cl)cc21)c1ccccn1` [Compound 92, 2-[5,6-Dichloro-2-(2,2,2-trifluoro-ethyl)-benzoimidazol-1-yl]-1-pyridin-2-yl-ethanone], the outcome was active.

Turning to `FC(F)(F)Cc1nc2cc(Cl)c(Cl)cc2n1Cc1cccc(C(F)(F)F)c1` [Compound 93, 5,6-Dichloro-2-(2,2,2-trifluoro-ethyl)-1-(3-trifluoromethyl-benzyl)-1H-benzoimidazole], the outcome was active.

With `Fc1c(F)c(F)c(Cn2c(CC(F)(F)F)nc3cc(Cl)c(Cl)cc32)c(F)c1F` [Compound 94, 5,6-Dichloro-1-pentafluorophenylmethyl-2-(2,2,2-trifluoro-ethyl)-1H-benzoimidazole], the result was inactive.

As for `Cc1cccc(Cn2c(CC(F)(F)F)nc3cc(Cl)c(Cl)cc32)c1` [Compound 95, 5,6-Dichloro-1-(3-methyl-benzyl)-2-(2,2,2-trifluoro-ethyl)-1H-benzoimidazole], the result was inactive.

As to `O=C(Cn1c(CC(F)(F)F)nc2cc(Cl)c(Cl)cc21)c1cccc([N+](=O)[O-])c1` [Compound 96, 2-[5,6-Dichloro-2-(2,2,2-trifluoro-ethyl)-benzoimidazol-1-yl]-1-(3-nitro-phenyl)-ethanone], the result was inactive.

For `FC(F)(F)Cc1nc2cc(Cl)c(Cl)cc2n1Cc1ccccc1` [Compound 97, 1-Benzyl-5,6-dichloro-2-(2,2,2-trifluoro-ethyl)-1H-benzoimidazole], the outcome was active.

Regarding `OCCn1c(CC(F)(F)F)nc2cc(Cl)c(Cl)cc21` [Compound 98, 2-[5,6-Dichloro-2-(2,2,2-trifluoro-ethyl)-benzoimidazol-1-yl]-ethanol], the outcome was active.

`FC(F)(F)Cc1nc2cc(Cl)c(Cl)cc2n1Cc1cccnc1` [Compound 99, 5,6-Dichloro-1-pyridin-3-ylmethyl-2-(2,2,2-trifluoro-ethyl)-1H-benzoimidazole]: the outcome was active.

As to `FC(F)(F)Cc1nc2cc(Cl)c(Cl)cc2n1Cc1ccc(C(F)(F)F)cc1` [Compound 100, 5,6-Dichloro-2-(2,2,2-trifluoro-ethyl)-1-(4-trifluoromethyl-benzyl)-1H-benzoimidazole], the outcome was active.

In the case of `FC(F)(F)Cc1nc2cc(Cl)c(Cl)cc2n1Cc1ccc(OC(F)(F)F)cc1` [Compound 101, 5,6-Dichloro-2-(2,2,2-trifluoro-ethyl)-1-(4-trifluoromethoxy-benzyl)-1H-benzoimidazole], the outcome was inactive.

With `FC(F)(F)Cc1nc2cc(Cl)c(Cl)cc2n1Cc1ccccn1` [Compound 102, 5,6-Dichloro-1-pyridin-2-ylmethyl-2-(2,2,2-trifluoro-ethyl)-1H-benzoimidazole], the outcome was active.

Regarding `O=C(Cn1c(CC(F)(F)F)nc2cc(Cl)c(Cl)cc21)c1ccc2c(c1)OCCO2` [Compound 104, 2-[5,6-Dichloro-2-(2,2,2-trifluoro-ethyl)-benzoimidazol-1-yl]-1-(2,3-dihydro-benzo[1,4]dioxin-6-yl)-ethanone], the outcome was inactive.

With `O=[N+]([O-])c1ccc(Cn2c(CC(F)(F)F)nc3cc(Cl)c(Cl)cc32)cc1` [Compound 105, 5,6-Dichloro-1-(4-nitro-benzyl)-2-(2,2,2-trifluoro-ethyl)-1H-benzoimidazole], the result was active.

`CO[C@@](C(=O)OC(c1nc2cc(Cl)c(Cl)cc2[nH]1)C(F)(F)F)(c1ccccc1)C(F)(F)F` (stereo partly shown) [Compound 106]: the result was active.

As for `FC(F)(F)Cc1nc2cc(Cl)c(Cl)cc2n1Cc1ccncc1` [Compound 108, 5,6-Dichloro-1-pyridin-4-ylmethyl-2-(2,2,2-trifluoro-ethyl)-1H-benzoimidazole], the result was active.

Regarding `N#Cc1cccc(Cn2c(CC(F)(F)F)nc3cc(Cl)c(Cl)cc32)c1` [Compound 109, 3-[5,6-Dichloro-2-(2,2,2-trifluoro-ethyl)-benzoimidazol-1-ylmethyl]-benzonitrile], the outcome was active.

In the case of `N#Cc1ccccc1Cn1c(CC(F)(F)F)nc2cc(Cl)c(Cl)cc21` [Compound 110, 2-[5,6-Dichloro-2-(2,2,2-trifluoro-ethyl)-benzoimidazol-1-ylmethyl]-benzonitrile], the outcome was active.

As to `Cc1cc2nc(C(O)C(F)(F)F)[nH]c2cc1C` (stereo not shown) [Compound 111, 1-(5,6-Dimethyl-1H-benzoimidazol-2-yl-)2,2,2-trifluoro-ethanol], the outcome was inactive.

Regarding `OC(c1nc2cc(Cl)c(F)cc2[nH]1)C(F)(F)F` (stereo not shown) [Compound 112, 1-(5-Chloro-6-fluoro-1H-benzoimidazol-2-yl-)2,2,2-trifluoro-ethanol], the result was active.

With `OC(c1nc2cc(F)c(F)cc2[nH]1)C(F)(F)F` (stereo not shown) [Compound 113, 1-(5,6-Difluoro-1H-benzoimidazol-2-yl-)2,2,2-trifluoro-ethanol], the outcome was inactive.

With `O=C(c1nc2cc(Cl)c(Cl)cc2[nH]1)C(F)(F)F` [Compound 114, 1-(5,6-DiChloro-1H-benzoimidazol-2-yl)-2,2,2-trifluoro-ethanone], the result was active.

On to `Fc1ccc(OCCn2c(CC(F)(F)F)nc3cc(Cl)c(Cl)cc32)cc1` [Compound 115, 5,6-Dichloro-1-[2-(4-fluoro-phenoxy)-ethyl]-2-(2,2,2-trifluoro-ethyl)-1H-benzoimidazole], for which the outcome was active.

`N#Cc1ccc(Cn2c(CC(F)(F)F)nc3cc(Cl)c(Cl)cc32)cc1` [Compound 116, 4-[5,6-Dichloro-2-(2,2,2-trifluoro-ethyl)-benzoimidazol-1-ylmethyl]-benzonitrile]: the result was active.

Consider `Fc1ccccc1Cn1c(CC(F)(F)F)nc2cc(Cl)c(Cl)cc21` [Compound 117, 5,6-Dichloro-1-(2-fluoro-benzyl)-2-(2,2,2-trifluoro-ethyl)-1H-benzoimidazole], for which the outcome was active.

As for `Fc1cccc(Cn2c(CC(F)(F)F)nc3cc(Cl)c(Cl)cc32)c1` [Compound 119, 5,6-Dichloro-1-(3-fluoro-benzyl)-2-(2,2,2-trifluoro-ethyl)-1H-benzoimidazole], the outcome was active.

In the case of `FC(F)(F)Cc1nc2cc(Cl)c(Cl)cc2n1Cc1cccc(Cl)c1` [Compound 120, 5,6-Dichloro-1-(3-chloro-benzyl)-2-(2,2,2-trifluoro-ethyl)-1H-benzoimidazole], the outcome was active.

Consider `FC(F)(F)Cc1nc2cc(Cl)c(Cl)cc2n1Cc1ccc(Cl)cc1` [Compound 121, 5,6-Dichloro-1-(4-chloro-benzyl)-2-(2,2,2-trifluoro-ethyl)-1H-benzoimidazole], for which the result was active.

Regarding `Fc1cccc(OCCn2c(CC(F)(F)F)nc3cc(Cl)c(Cl)cc32)c1` [Compound 123, 5,6-Dichloro-1-[2-(3-fluoro-phenoxy)-ethyl]-2-(2,2,2-trifluoro-ethyl)-1H-benzoimidazole], the outcome was inactive.

Turning to `FC(F)(F)Cc1nc2cc(Cl)c(Cl)cc2n1CCOc1ccc(Cl)cc1` [Compound 124, 5,6-Dichloro-1-[2-(4-chloro-phenoxy)-ethyl]-2-(2,2,2-trifluoro-ethyl)-1H-benzoimidazole], the result was active.

`FC(F)(F)Cc1nc2cc(Cl)c(Cl)cc2n1Cc1ccccc1Cl` [Compound 125, 5,6-Dichloro-1-(2-chloro-benzyl)-2-(2,2,2-trifluoro-ethyl)-1H-benzoimidazole]: the outcome was active.

As for `Cc1onc(-c2ccccc2)c1C(=O)Cn1c(CC(F)(F)F)nc2cc(Cl)c(Cl)cc21` [Compound 126, 2-[5,6-Dichloro-2-(2,2,2-trifluoro-ethyl)-benzoimidazol-1-yl]-1-(5-methyl-3-phenyl-isoxazol-4-yl)-ethanone], the outcome was inactive.

For the compound `Cc1cc2[nH]c(C(O)C(F)(F)F)nc2cc1Cl` (stereo not shown) [Compound 128, 1-(5-Chloro-6-methyl-1H-benzoimidazol-2-yl-)2,2,2-trifluoro-ethanol], the result was inactive.
